Article PMC6329768, “Dinitroimidazoles as bifunctional bioconjugation reagents for protein functionalization and peptide macrocyclization” (Nature Communications, 2019)
Each block holds one molecule with its values, some of them ahead of it.

Assays:
[1] = Lys-Lys (or Dap-Dap) side-chain stapling of unprotected peptides with bis(1,4-dinitroimidazole) linker 5a (bis[(1,4-dinitroimidazol-2-yl)methyl] succinate, 1.2 mM), DIEA 4.0 mM; ANRORC ring-opening/ring-closing gives 1-alkyl-4-nitroimidazole linkages; conditions: the molecule shown is the open-chain precursor, DMSO (ca. 84%, with ca. 10% water and 6% MeCN from stock solutions), 1.0 mM, 37.0 °C, 2.0 h
[2] = Cys-Cys side-chain stapling of unprotected peptides with bis(1,4-dinitroimidazole) linker 5a (bis[(1,4-dinitroimidazol-2-yl)methyl] succinate, 1.0 eq) by cine-substitution at imidazole C5; sodium ascorbate 2.0 mM; conditions: the molecule shown is the open-chain precursor, 100 mM HEPES buffer pH 7.0, 1.0 mM, 25.0 °C
[3] = chemical stability of peptide conjugates under acidic, basic or oxidative conditions (HPLC); assay type: physicochemical; conditions: 10 h, conjugate 0.05 mM, three independent experiments; for stability of conjugate at pH 10.0: aqueous buffer pH 10.0, 37 °C
Description: The conversion values represent means ± SDs (standard deviations) of three independent experiments The stability of protein conjugates is a major concern for bioconjugation reagents. […] Next, we investigated the stability of the (4-nitroimidazole)-thiol linkage. Thiol-maleimide and thiol-arylation conjugates are reported to degrade under acidic, basic, or oxidative conditions[25],[30],[31]. We incubated conjugate 1c' in aqueous buffer at pH 2.0, pH 10.0, or in the presence of 10 mM H2O2 for 10 h at 37 °C.
Next, we explored the application of 1,4-DNIms in Lys bioconjugation of peptides. […] HRMS analysis and NMR analysis determined that product 1d is a ε-(4-nitroimidazole)-Lys derivative (Fig. 6a, Supplementary Figs. 28–32). Next, we explored the chemoselectivity of compound 1a in DMSO via incubation with nucleophilic amino acids, including Tyr, Ser, Trp, His, Asp, and Arg. […] To sum up, 1,4-DNIms react specifically with cysteine thiols under neutral aqueous conditions, and modify lysine ε-amines through a distinct mechanism with high selectivity in organic solvents in the absence of thiols by generating stable conjugates.
Supplementary Figure 15. Stability of 4-nitroimidazole-ACA adduct 1c’ (0.05 mM) in buffers at pH 2.0, pH 10.0, or in 10 mM H2O2 at 37 °C for 10 h before subjected to HPLC analysis. Gradient used:isocratic 2% CH3CN for 5 min, then 2% to 90% CH3CN in 25 min, then isocratic 90% CH3CN for 5 min, then 90% to 2% CH3CN in 5 min. Monitor wavelength: 365 nm.
Supplementary Figure 16. Stability of NEM-2a’ conjugate (0.05 mM) in buffers at pH 2.0 and 10.0. NEM-2a’ conjugate was incubated at pH 2.0 and pH 10.0 at 37 °C for 10 h before subjected to HPLC analysis. Gradient used:isocratic 2% CH3CN for 5 min, then 2% to 90% CH3CN in 25 min, then isocratic 90% CH3CN for 5 min, then 90% to 2% CH3CN in 5 min. Monitor wavelength: 254 nm. […]

[4] = hydrolytic stability of reagents in PBS buffer pH 7.4 (HPLC); assay type: physicochemical; conditions: 100 mM PBS buffer, pH 7.4, 37 °C, HPLC analysis
Description: Stability of N-phenyl maleimide in 100 mM PBS buffer,
pH 7.4 at 37 °C for indicated time before subjected to HPLC analysis.
at 37 °C for indicated time before subjected to HPLC analysis.

[5] = solubility in aqueous solutions; assay type: physicochemical
Source text: Lysines are rich in natural proteins and usually solvent-exposed on protein surface, therefore representing a major competition.

Molecule: CC(=O)N[C@@H](C)C(=O)N[C@@H](CCCCn1cc([N+](=O)[O-])nc1COC(=O)CCC(=O)OCc1nc([N+](=O)[O-])cn1[N+](=O)[O-])C(=O)N[C@H](C(=O)N[C@@H](Cc1ccccc1)C(=O)N[C@@H](CC(N)=O)C(=O)N[C@@H](CCCCN)C(=O)N[C@@H](C)C(=O)O)[C@@H](C)O [Ac-Ala-Lys-Thr-Phe-Asn-Lys-Ala-OH]
ring closure, conversion by HPLC ([1]; 33-membered ring): 95%

Molecule: N=C(N)NCCC[C@H](NC(=O)[C@H](CSc1[nH]c(COC(=O)CCC(=O)OCc2nc([N+](=O)[O-])cn2[N+](=O)[O-])nc1[N+](=O)[O-])NC(=O)[C@@H](N)Cc1ccccc1)C(=O)NCC(=O)N[C@@H](CC(=O)O)C(=O)N[C@@H](CS)C(=O)O [H-Phe-Cys-Arg-Gly-Asp-Cys-OH]
ring closure, conversion by HPLC ([2]; 31-membered ring, 0.167 h): 90%

Molecule: CC(=O)N[C@@H](CC(C)C)C(=O)N[C@H](C(=O)N[C@@H](Cc1ccccc1)C(=O)N[C@@H](CCCCn1cc([N+](=O)[O-])nc1COC(=O)CCC(=O)OCc1nc([N+](=O)[O-])cn1[N+](=O)[O-])C(=O)N[C@@H](Cc1c[nH]cn1)C(=O)N[C@@H](Cc1ccc(O)cc1)C(=O)N[C@@H](Cc1c[nH]c2ccccc12)C(=O)N[C@@H](C)C(=O)N[C@@H](CCC(N)=O)C(=O)N[C@@H](CC(C)C)C(=O)N[C@@H](CCCCN)C(=O)N[C@@H](CO)C(=O)O)[C@@H](C)O [Ac-Leu-Thr-Phe-Lys-His-Tyr-Trp-Ala-Gln-Leu-Lys-Ser-OH]
ring closure, conversion by HPLC ([1]; 42-membered ring): 90%

Molecule: CC(=O)N[C@@H](C)C(=O)N[C@@H](CSc1[nH]c(COC(=O)CCC(=O)OCc2nc([N+](=O)[O-])cn2[N+](=O)[O-])nc1[N+](=O)[O-])C(=O)NCC(=O)N[C@@H](Cc1ccccc1)C(=O)N[C@@H](CCCCN)C(=O)N[C@@H](C)C(=O)N[C@@H](CS)C(=O)NCC(=O)N[C@H](C(=O)N[C@@H](CCCCN)C(=O)O)C(C)C [Ac-Ala-Cys-Gly-Phe-Lys-Ala-Cys-Gly-Val-Lys-OH]
ring closure, conversion by HPLC ([2]; 34-membered ring, 0.5 min): 100%

stability of conjugate at pH 10.0 [3]: complete hydrolysis
Molecule: CCN1C(=O)CC(SC[C@H](NC(=O)[C@H](C)NC(C)=O)C(=O)N[C@@H](C)C(=O)O)C1=O (stereo partly shown) [N-ethyl maleimide conjugate of 2a′]

Molecule: CC(=O)N[C@@H](C)C(=O)N[C@@H](CSc1[nH]c(COC(=O)CCC(=O)OCc2nc([N+](=O)[O-])cn2[N+](=O)[O-])nc1[N+](=O)[O-])C(=O)NCC(=O)N[C@@H](CS)C(=O)N[C@@H](C)C(=O)O [Ac-Ala-Cys-Gly-Cys-Ala-OH]
ring closure, conversion by HPLC ([2]; 25-membered ring, 0.167 h): 95%

Molecule: Ac-Ala-Lys-Ser-Gln-Val-Thr-Phe-Asn-Leu-Trp-Arg-Met-Gln-Lys-Ala-OH
ring closure, conversion by HPLC ([1]; 57-membered ring): 92%

Molecule: CC(=O)N[C@@H](C)C(=O)N[C@@H](CCCCn1cc([N+](=O)[O-])nc1COC(=O)CCC(=O)OCc1nc([N+](=O)[O-])cn1[N+](=O)[O-])C(=O)N[C@@H](Cc1ccccc1)C(=O)N[C@@H](CC(N)=O)C(=O)N[C@@H](CC(C)C)C(=O)N[C@@H](Cc1c[nH]c2ccccc12)C(=O)N[C@@H](CCCCN)C(=O)N[C@@H](C)C(=O)O [Ac-Ala-Lys-Phe-Asn-Leu-Trp-Lys-Ala-OH]
ring closure, conversion by HPLC ([1]; 36-membered ring): 90%

stability of conjugate under oxidative conditions ([3]; 10 mM H2O2 in Na2CO3 buffer at pH 8.0, 37 °C): did not decompose | stability of conjugate at pH 2.0 ([3]; aqueous buffer pH 2.0, 37 °C): did not decompose | stability of conjugate at pH 10.0 [3]: did not decompose
Molecule: COC(=O)[C@H](C)NC(=O)[C@H](CSc1[nH]cnc1[N+](=O)[O-])NC(=O)[C@H](C)NC(C)=O [1c]

Molecule: CC(=O)N[C@@H](C)C(=O)N[C@@H](Cn1cc([N+](=O)[O-])nc1COC(=O)CCC(=O)OCc1nc([N+](=O)[O-])cn1[N+](=O)[O-])C(=O)N[C@H](C(=O)N[C@H](C(=O)N[C@@H](Cc1ccccc1)C(=O)N[C@@H](CC(N)=O)C(=O)N[C@@H](CC(C)C)C(=O)N[C@@H](Cc1c[nH]c2ccccc12)C(=O)N[C@@H](CN)C(=O)N[C@@H](C)C(=O)O)[C@@H](C)O)[C@@H](C)O [Ac-Ala-Dap-Thr-Thr-Phe-Asn-Leu-Trp-Dap-Ala-OH]
ring closure, conversion by HPLC ([1]; 36-membered ring): 95%

Molecule: O=C1C=CC(=O)N1c1ccccc1 [N-phenyl maleimide]
time to complete hydrolysis (yielding the maleamic acid) [4]: ≤ 2 h

solubility in aqueous solutions [5]: < 0.05 mM
Molecule: O=S(=O)(c1c(F)c(F)c(F)c(F)c1F)c1c(F)c(F)c(F)c(F)c1F [pf1, 6,6′-sulfonylbis(1,2,3,4,5-pentafluorobenzene)]

Molecule: CC(=O)N[C@@H](C)C(=O)N[C@@H](CSc1[nH]c(COC(=O)CCC(=O)OCc2nc([N+](=O)[O-])cn2[N+](=O)[O-])nc1[N+](=O)[O-])C(=O)N[C@@H](C)C(=O)N[C@H](C(=O)N[C@@H](CC(N)=O)C(=O)N[C@@H](CS)C(=O)N[C@@H](C)C(=O)O)[C@@H](C)O [Ac-Ala-Cys-Ala-Thr-Asn-Cys-Ala-OH]
ring closure, conversion by HPLC ([2]; 31-membered ring, 0.167 h): 95%

Molecule: CC(=O)N[C@@H](C)C(=O)N[C@@H](CSc1[nH]c(COC(=O)CCC(=O)OCc2nc([N+](=O)[O-])cn2[N+](=O)[O-])nc1[N+](=O)[O-])C(=O)N[C@@H](C)C(=O)N[C@@H](CCCNC(=N)N)C(=O)NCC(=O)N[C@@H](Cc1c[nH]c2ccccc12)C(=O)NCC(=O)N[C@@H](CS)C(=O)N[C@@H](C)C(=O)O [Ac-Ala-Cys-Ala-Arg-Gly-Trp-Gly-Cys-Ala-OH]
ring closure, conversion by HPLC ([2]; 37-membered ring, 0.167 h): 95%
